Laboratory results: patent publication US20110038959A1, “PLANT-ORIGIN DRUG FOR PREVENTING OR IMPROVING HYPERURICEMIA” (priority 2009, published 2011)

Experiments:
[1] = target: T1, buttermilk-derived xanthine oxidase (Bos taurus, UniProt P80457); experiment: Xanthine oxidase inhibitory activity assay (xanthine substrate, uric acid detected by absorbance at 295 nm); format: biochemical
T1 construct: an enzyme solution comprising buttermilk-derived xanthine oxidase dissolved at 0.2 units/ml in phosphate buffer; from tissue; host or cells: buttermilk

[2] = tested on: potassium oxonate-induced hyperuricemic rat models; experiment: Uric acid level in blood of potassium oxonate-induced hyperuricemic rat models; format: in vivo, SD rats
Experimental: 5-week-old male SD rats were purchased from Japan SLC, Inc. and were acclimatized for 1 week. The rats were divided into groups based on body weight (each group consisting of 6 rats), and 5 groups were designated in total; i.e., a control group, a group to which the Artemisia extract is administered, a group to which the chrysanthemum extract is administered, a group to which the guava extract is administered, and a group to which the oregano extract is administered. At the outset, potassium oxonate (Sigma-Aldrich) was administered intraperitoneally to rats at a dose of 250 mg/kg of body weight to prepare potassium oxonate-induced hyperuricemic rat models. […] Blood serum was fractionated from the sampled blood via centrifugation and the uric acid level in the blood was measured. […] Blood serum was fractionated from the sampled blood via centrifugation and the uric acid level in the blood was measured. […] Blood serum was fractionated from the sampled blood via centrifugation and the uric acid level in the blood was measured.

T1 sequence (P80457 whole entry): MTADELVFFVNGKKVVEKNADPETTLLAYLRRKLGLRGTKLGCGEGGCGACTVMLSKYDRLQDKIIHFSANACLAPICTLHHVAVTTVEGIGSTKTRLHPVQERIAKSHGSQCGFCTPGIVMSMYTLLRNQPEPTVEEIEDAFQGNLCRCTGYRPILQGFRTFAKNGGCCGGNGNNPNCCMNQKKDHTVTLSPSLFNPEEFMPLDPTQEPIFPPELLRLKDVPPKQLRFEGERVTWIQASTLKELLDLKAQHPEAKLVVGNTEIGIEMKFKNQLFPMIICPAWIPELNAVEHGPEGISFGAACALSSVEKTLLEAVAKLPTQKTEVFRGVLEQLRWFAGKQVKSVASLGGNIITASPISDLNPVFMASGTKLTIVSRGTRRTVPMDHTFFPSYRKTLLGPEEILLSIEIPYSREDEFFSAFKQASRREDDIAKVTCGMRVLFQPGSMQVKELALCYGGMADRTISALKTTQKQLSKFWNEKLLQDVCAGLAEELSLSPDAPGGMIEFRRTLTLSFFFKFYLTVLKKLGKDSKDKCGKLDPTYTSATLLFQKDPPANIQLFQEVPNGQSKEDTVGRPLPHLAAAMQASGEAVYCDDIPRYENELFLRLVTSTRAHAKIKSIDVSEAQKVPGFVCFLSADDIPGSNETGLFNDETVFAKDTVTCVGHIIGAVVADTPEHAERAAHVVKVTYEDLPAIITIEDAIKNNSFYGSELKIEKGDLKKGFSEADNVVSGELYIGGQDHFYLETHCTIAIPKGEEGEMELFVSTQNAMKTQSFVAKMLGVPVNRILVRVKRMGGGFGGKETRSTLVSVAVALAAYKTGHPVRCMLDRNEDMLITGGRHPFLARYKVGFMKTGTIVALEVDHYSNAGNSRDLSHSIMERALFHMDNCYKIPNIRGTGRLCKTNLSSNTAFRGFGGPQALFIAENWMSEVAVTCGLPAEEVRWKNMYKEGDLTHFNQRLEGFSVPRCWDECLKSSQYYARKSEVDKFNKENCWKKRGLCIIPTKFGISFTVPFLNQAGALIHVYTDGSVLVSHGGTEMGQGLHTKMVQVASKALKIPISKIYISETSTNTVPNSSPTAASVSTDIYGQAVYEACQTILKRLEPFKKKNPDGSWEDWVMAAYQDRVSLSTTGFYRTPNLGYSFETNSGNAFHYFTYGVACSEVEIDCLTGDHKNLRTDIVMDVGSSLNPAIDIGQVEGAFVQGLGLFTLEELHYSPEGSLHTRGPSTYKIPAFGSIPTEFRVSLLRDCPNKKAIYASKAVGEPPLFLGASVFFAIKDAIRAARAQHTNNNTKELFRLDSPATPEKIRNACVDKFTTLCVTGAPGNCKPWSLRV

IC50 ([1]; concentration inhibiting 50% of xanthine oxidase activity, solvent control = 100%): 1500 nM
Structure (SMILES): O=C(/C=C/c1ccc(O)c(O)c1)c1ccc(O)c(O)c1O [Okanin, okanin]
xanthine oxidase activity compared with allopurinol (in words) ([1]; comparison of IC50 values, Table 2): more potent xanthine oxidase activity than allopurinol
Uric acid level in blood ([2]; 50 mg okanin per kg body weight 1 hour after potassium oxonate (250 mg/kg i.p.), blood sampled 2 hours after potassium oxonate, control group 4.92 ± 0.53): 4.10 ± 0.56 mg/dL
uric acid level after administration (in words) ([2]; okanin 50 mg/kg, blood 2 hours after potassium oxonate, versus control group, Table 5): significantly lowered uric acid level
